This note sets out measurements from patent publication US8455665B2, “3-phenoxymethylpyrrolidine compounds” (Theravance, Inc., priority 2009, dated 2013).

Molecules are shown by their SMILES. Marks after values point to notes of the source that are not given here.

In one assay the target is SERT (Homo sapiens, UniProt P31645). Put plainly: fluorescence-based serotonin uptake assay (Tsuruda et al. 2010). It is filed as cell-based. To be noted: serotonin reuptake inhibition, fluorescence-based assay (data indicated by an asterisk); for IC50: read-out: SERT pIC50 (converted).
In another assay the target is NET (Homo sapiens, UniProt P23975). Description: fluorescence-based norepinephrine uptake assay (Tsuruda et al. 2010). It is filed as cell-based. The conditions noted are these: norepinephrine reuptake inhibition, fluorescence-based assay (data indicated by an asterisk); for IC50: read-out: NET pIC50 (converted).
Sequence of NET (P23975 whole entry): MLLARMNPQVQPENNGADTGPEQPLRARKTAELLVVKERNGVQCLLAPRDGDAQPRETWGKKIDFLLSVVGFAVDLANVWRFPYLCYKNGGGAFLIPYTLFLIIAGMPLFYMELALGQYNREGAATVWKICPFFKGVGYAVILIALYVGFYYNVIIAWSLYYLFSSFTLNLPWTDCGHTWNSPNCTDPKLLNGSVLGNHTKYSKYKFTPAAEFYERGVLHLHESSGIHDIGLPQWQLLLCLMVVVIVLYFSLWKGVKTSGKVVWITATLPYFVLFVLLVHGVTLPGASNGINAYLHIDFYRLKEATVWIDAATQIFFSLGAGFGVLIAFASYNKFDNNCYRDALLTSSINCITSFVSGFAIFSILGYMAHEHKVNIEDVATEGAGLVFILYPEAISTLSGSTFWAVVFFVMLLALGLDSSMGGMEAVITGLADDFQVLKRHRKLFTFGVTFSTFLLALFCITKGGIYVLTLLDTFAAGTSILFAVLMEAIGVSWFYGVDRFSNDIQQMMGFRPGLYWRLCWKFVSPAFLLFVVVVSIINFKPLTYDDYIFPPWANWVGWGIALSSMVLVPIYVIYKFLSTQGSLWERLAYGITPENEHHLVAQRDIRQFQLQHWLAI

Sequence of SERT (P31645 whole entry, species assumed): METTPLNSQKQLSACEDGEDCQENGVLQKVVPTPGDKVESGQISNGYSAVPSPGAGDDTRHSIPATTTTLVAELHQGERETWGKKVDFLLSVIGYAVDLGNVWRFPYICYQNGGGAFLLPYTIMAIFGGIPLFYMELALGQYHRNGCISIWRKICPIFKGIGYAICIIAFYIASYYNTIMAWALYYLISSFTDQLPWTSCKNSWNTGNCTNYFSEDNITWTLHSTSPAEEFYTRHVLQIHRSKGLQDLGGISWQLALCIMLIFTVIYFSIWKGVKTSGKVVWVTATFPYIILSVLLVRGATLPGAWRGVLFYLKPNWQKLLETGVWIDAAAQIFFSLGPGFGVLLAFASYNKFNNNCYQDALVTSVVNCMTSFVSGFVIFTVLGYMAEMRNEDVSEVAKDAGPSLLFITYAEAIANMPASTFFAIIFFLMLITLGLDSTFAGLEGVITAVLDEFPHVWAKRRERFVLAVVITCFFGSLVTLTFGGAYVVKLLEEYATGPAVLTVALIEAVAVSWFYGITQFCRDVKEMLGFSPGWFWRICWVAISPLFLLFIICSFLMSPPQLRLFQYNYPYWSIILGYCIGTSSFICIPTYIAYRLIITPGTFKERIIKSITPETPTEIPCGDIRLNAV

For the compound `CSC[C@H](Oc1cccc(Cl)c1C(F)(F)F)[C@H]1CCNC1.O=C(O)C(F)(F)F` [Example 15-7], at SERT, the “SERT pIC50” value is “≧8.0*”. Further, the “NET pIC50” value at NET was “≧8.0*”.

As for `CCOC[C@H](Oc1cccc(Cl)c1C(F)(F)F)[C@H]1CCNC1` [Example 7-15, (S)-3-[(R)-1-(3-Chloro-2-trifluoromethylphenoxy)-2-ethoxyethyl]pyrrolidine], the IC50 on SERT and on NET was at most 0.01 µM each time.

`CC(C)OC[C@@H](Oc1c(Cl)cccc1Cl)[C@H]1CCNC1` [Example 9-28, (S)-3-[(S)-1-(2,6-Dichlorophenoxy)-2-isopropoxyethyl]pyrrolidine]: the IC50 at SERT was at most 0.1 µM; on NET, at most 0.01 µM.

On to `CCSC[C@H](Oc1cccc(Cl)c1Cl)[C@H]1CCNC1.O=C(O)C(F)(F)F` [Example 17-1], for which, at SERT, the “SERT pIC50” value is listed as “≧8.0*”. The “NET pIC50” value at NET is given as “≧8.0*”.

In the case of `CCOC[C@H](Oc1ccc(C(F)(F)F)cc1Cl)[C@H]1CCNC1` [Example 7-19, (S)-3-[(R)-1-(2-Chloro-4-trifluoromethylphenoxy)-2-ethoxyethyl]pyrrolidine], the IC50 at SERT and on NET was at most 0.01 µM in each case.

On to `CSC[C@H](Oc1cccc(F)c1Cl)[C@H]1CCNC1.O=C(O)C(F)(F)F` [Example 15-3], for which the “SERT pIC50” value at SERT is “≧8.0*”. The “NET pIC50” value at NET is on record as “≧8.0*”.

With `CC(C)SC[C@H](Oc1ccc(Cl)c(Cl)c1)[C@H]1CCNC1` [Example 19-7, (S)-3-[(R)-1-(3,4-Dichlorophenoxy)-2-isopropylsulfanylethyl]-pyrrolidine], the IC50 at SERT and at NET was at most 0.01 µM each time.

Regarding `CCOC[C@H](Oc1ccc(Cl)c(Cl)c1F)[C@H]1CCNC1` [Example 7-29, (S)-3-[(R)-1-(3,4-Dichloro-2-fluorophenoxy)-2-ethoxyethyl]pyrrolidine], the IC50 at SERT and on NET was at most 0.01 µM throughout.

`CC(C)OCC(Oc1cccc(Cl)c1C(F)(F)F)C1CCNC1` [Example 9-20, (S)-3-[(R)-1-(3-Chloro-2-trifluoromethyl-phenoxy)-2-isopropoxycthyl]pyrrolidine]: the figures for the IC50 at SERT and at NET were at most 0.1 µM and at most 0.01 µM, respectively.

As for `OC[C@@H](Oc1cccc(Cl)c1Cl)[C@@H]1CCNC1` (stereo in doubt) [Example 2-2, (R)-2-(2,3-Dichlorophenoxy)-2-(S)-pyrrolidin-3-yl-ethanol], the IC50 at SERT is at most 0.1 µM; on NET it was at most 0.01 µM.

As to `CC(C)OC[C@@H](Oc1cccc(Cl)c1C(F)(F)F)[C@H]1CCNC1` [Example 9-19, (S)-3-[(S)-1-(3-Chloro-2-trifluoromethylphenoxy)-2-isopropoxyethyl]pyrrolidine], the IC50 at SERT and on NET was at most 0.01 µM in each case.

On to `CCOC[C@H](Oc1cc(Cl)cc(Cl)c1)[C@H]1CCNC1` [Example 7-27, (S)-3-[(R)-1-(3,5-Dichlorophenoxy)-2-ethoxyethyl]pyrrolidine], for which the IC50 on SERT is at most 0.1 µM; on NET it was at most 0.01 µM.

With `CCSC[C@@H](Oc1cccc(Cl)c1C(F)(F)F)[C@H]1CCNC1.O=C(O)C(F)(F)F` [Example 17-14], the “SERT pIC50” value on SERT is on record as “≧8.0*”. In addition, the “NET pIC50” value at NET is listed as “≧7.0*”.

Take `CC(C)SC[C@@H](Oc1cccc(Cl)c1C(F)(F)F)[C@H]1CCNC1` [Example 19-6, (S)-3-[(S)-1-(3-Chloro-2-trifluoromethylphenoxy)-2-isopropylsulfanylethyl]pyrrolidine]: the IC50 at SERT and on NET was at most 0.01 µM throughout.

On to `CC(C)OC[C@H](Oc1cccc(C(F)(F)F)c1)[C@H]1CCNC1` [Example 9-4, (S)-3-[(R)-2-Isopropoxy-1-(3-trifluoromethylphenoxy)ethyl]pyrrolidine], for which the IC50 at SERT and on NET was at most 0.1 µM in each case.

As for `CCSC[C@H](Oc1ccc(Cl)cc1)[C@H]1CCNC1.O=C(O)C(F)(F)F` [Example 17-10], the “SERT pIC50” value on SERT is on record as “≧8.0*”. Also, the “NET pIC50” value at NET is on record as “≧8.0*”.
